Results: ChEMBL document CHEMBL1150559 (Bioorg Med Chem Lett, 1997)
Values after ≈ are worked out from the molar mass of the structure shown.

Columns and labels:
Substance-P receptor [1] = molecular target: Substance-P receptor (Cavia porcellus, UniProt P30547); test: Antagonism of the guinea pig tachykinin NK1 receptor; format: functional
Histamine H1 receptor [2] = molecular target: T1, Histamine H1 receptor (Homo sapiens, UniProt P35367); format: functional
[3] = Compound was calculated log P; conditions: pH 7.4
Cavia porcellus [4] = species on record: Cavia porcellus; test: Compound with maleate salt was tested for inhibition of histamine-induced skin wheal response in guinea pigs; format: functional
[5] = Compound was tested for its solubility at pH 7.4; format: physicochemical; conditions: buffer
Cavia porcellus [6] = species on record: Cavia porcellus; test: Inhibition of histamine-induced contraction of guinea pig ileum in a concentration-dependent fashion; format: functional; conditions: read-out: pA2 (converted)
[7] = Dose-dependent inhibition of SP-induced increases in phosphatidylinositol turnover in UC11 cells; format: functional, cell-based; conditions: Homo sapiens, read-out: pA2 (converted)
Substance-P receptor [8] = molecular target: Substance-P receptor (Homo sapiens, UniProt P25103); test: Compound was evaluated for the antagonistic activity against NK1 receptor; format: functional
Sequence of Substance-P receptor (Homo sapiens, UniProt P25103) (P25103 whole entry): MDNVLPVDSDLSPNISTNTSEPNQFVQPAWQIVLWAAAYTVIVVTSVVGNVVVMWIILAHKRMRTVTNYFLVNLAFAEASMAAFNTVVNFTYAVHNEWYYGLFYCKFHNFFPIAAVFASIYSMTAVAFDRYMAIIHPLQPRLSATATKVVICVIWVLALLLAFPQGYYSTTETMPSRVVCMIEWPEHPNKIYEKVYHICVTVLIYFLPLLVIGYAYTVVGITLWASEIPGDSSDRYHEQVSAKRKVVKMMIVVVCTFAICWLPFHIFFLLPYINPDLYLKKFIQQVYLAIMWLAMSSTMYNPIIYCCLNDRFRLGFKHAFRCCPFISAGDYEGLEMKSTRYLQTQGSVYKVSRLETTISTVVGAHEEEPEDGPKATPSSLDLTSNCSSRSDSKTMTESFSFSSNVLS

Substance-K receptor = molecular target: T2, Substance-K receptor (Homo sapiens, UniProt P21452); test: Compound was evaluated for the antagonistic activity against Tachykinin receptor 2; format: functional
T2 sequence (P21452 whole entry): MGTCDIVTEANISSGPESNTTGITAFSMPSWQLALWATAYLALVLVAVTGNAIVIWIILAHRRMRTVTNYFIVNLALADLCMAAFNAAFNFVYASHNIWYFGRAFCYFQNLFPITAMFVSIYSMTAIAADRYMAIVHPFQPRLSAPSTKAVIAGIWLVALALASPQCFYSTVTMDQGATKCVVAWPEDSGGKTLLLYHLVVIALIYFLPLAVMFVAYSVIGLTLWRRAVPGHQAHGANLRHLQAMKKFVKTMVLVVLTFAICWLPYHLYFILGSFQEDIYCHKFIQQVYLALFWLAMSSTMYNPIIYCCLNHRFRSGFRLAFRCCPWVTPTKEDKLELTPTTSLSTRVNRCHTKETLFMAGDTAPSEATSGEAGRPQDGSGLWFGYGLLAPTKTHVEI

Histamine H1 receptor [9] = molecular target: T1, Histamine H1 receptor; test: Compound was evaluated for the antagonistic activity against H1 receptor; format: functional

Sequence of Substance-P receptor (Cavia porcellus, UniProt P30547) (P30547 whole entry): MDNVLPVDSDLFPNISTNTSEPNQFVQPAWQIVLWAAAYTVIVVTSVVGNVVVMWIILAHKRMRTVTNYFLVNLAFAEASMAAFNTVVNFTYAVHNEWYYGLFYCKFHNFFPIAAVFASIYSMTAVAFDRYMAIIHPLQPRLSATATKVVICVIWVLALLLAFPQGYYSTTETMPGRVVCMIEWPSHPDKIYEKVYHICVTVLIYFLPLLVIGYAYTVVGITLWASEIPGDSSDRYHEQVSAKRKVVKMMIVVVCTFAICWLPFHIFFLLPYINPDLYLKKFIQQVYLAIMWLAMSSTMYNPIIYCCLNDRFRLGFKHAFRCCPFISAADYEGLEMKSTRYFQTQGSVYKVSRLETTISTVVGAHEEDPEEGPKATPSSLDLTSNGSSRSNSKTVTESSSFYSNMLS
T1 sequence (P35367 whole entry): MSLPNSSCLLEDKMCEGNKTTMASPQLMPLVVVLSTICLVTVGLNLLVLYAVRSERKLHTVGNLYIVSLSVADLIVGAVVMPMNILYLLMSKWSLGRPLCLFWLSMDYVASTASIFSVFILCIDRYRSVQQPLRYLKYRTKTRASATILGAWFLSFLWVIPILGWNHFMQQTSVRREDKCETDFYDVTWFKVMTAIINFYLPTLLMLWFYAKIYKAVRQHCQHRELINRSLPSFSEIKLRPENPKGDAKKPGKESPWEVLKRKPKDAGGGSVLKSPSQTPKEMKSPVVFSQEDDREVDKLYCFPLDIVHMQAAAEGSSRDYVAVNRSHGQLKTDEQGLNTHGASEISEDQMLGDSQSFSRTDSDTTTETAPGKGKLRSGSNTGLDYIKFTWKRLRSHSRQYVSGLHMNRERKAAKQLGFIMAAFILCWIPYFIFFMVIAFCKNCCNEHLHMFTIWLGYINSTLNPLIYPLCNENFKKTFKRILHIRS

IC50 (Substance-P receptor [1])	IC50 (Histamine H1 receptor [2])	SMILES	further results
26 nM		CCOCCn1c(C(=O)C2CCN(CCC3(c4ccccc4)CCN(C(=O)c4cc(OC)c(OC)c(OC)c4)C3)CC2)nc2ccccc21 (centres undefined)	
27 nM		COc1cc(C(=O)N2CCC(CCN3CCC(C(=O)c4nc5ccccc5n4Cc4ccccn4)CC3)(c3ccccc3)C2)cc(OC)c1OC (centres undefined)	logP [3]: 3.22; ED50 (Cavia porcellus [4]): 10.3 mg/kg; solubility [5]: 38 µg/mL (≈ 55.2 µM)
16 nM	994 nM	COC(=O)c1ccccc1OCCCn1c(C(=O)C2CCN(CCC3(c4ccccc4)CCN(C(=O)c4cc(OC)c(OC)c(OC)c4)C3)CC2)nc2ccccc21 (centres undefined)	
27 nM	9450 nM	COc1cc(C(=O)N2CCC(CCN3CCC(C(=O)c4nc5ccccc5n4CCCOc4ccccc4C(=O)O)CC3)(c3ccccc3)C2)cc(OC)c1OC (centres undefined)	
21 nM		COc1cc(C(=O)N2CCC(CCN3CCC(C(=O)c4nc5ccccc5n4Cc4ccco4)CC3)(c3ccccc3)C2)cc(OC)c1OC (centres undefined)	
12 nM	446 nM	COc1cc(C(=O)N2CCC(CCN3CCC(C(=O)c4nc5ccccc5n4CCOCc4ccco4)CC3)(c3ccccc3)C2)cc(OC)c1OC (centres undefined)	
23 nM	1210 nM	COC(=O)c1ccc(Cn2c(C(=O)C3CCN(CCC4(c5ccccc5)CCN(C(=O)c5cc(OC)c(OC)c(OC)c5)C4)CC3)nc3ccccc32)cc1 (centres undefined)	

Continued, molecule first:

SMILES	IC50 (Substance-P receptor [1])	IC50 (Histamine H1 receptor [2])	further results
COc1cc(C(=O)N2CCC(CCN3CCC(C(=O)c4nc5ccccc5n4Cc4ccncc4)CC3)(c3ccccc3)C2)cc(OC)c1OC (centres undefined)	37 nM		
COc1cc(C(=O)N2CCC(CCN3CCC(C(=O)c4nc5ccccc5n4Cc4ccc(F)cc4)CC3)(c3ccc(Cl)c(Cl)c3)C2)cc(OC)c1OC (centres undefined)	92 nM	124 nM	
COc1ccc(C2(CCN3CCC(C(=O)c4nc5ccccc5n4Cc4ccc(F)cc4)CC3)CCN(C(=O)c3cc(OC)c(OC)c(OC)c3)C2)cc1OC (centres undefined)		309 nM	logP [3]: 4.72; Kb (Cavia porcellus [6]): 30.2 nM; ED50 (Cavia porcellus [4]): 18.9 mg/kg; solubility [5]: < 0.1 µg/mL; Kb [7]: 66.1 nM
COc1ccccc1CN[C@H]1C2CCN(CC2)[C@H]1C(c1ccccc1)c1ccccc1 [CP-96345]		~10000 nM	
COc1cc(C(=O)N2CCC(CCN3CCC(C(=O)c4nc5ccccc5n4Cc4ccc(F)cc4)CC3)(c3ccccc3)C2)cc(OC)c1OC (centres undefined)	34 nM		
COc1cc(C(=O)N2CCC(CCN3CCC(C(=O)c4nc5ccccc5n4Cc4cccnc4)CC3)(c3ccccc3)C2)cc(OC)c1OC (centres undefined)	27 nM		
COc1cc(C(=O)N2CCC(CCN3CCC(C(=O)c4nc5ccccc5n4Cc4ccc(F)cc4)CC3)(c3ccc(F)cc3F)C2)cc(OC)c1OC (centres undefined)	296 nM		
COc1cc(C(=O)N2CCC(CCN3CCC(C(=O)c4nc5ccccc5[nH]4)CC3)(c3ccccc3)C2)cc(OC)c1OC (centres undefined)	36 nM		
COc1cc(C(=O)N2CCC(CCN3CCC(C(=O)c4nc5ccccc5n4Cc4ccc(F)cc4)CC3)(c3ccc(C(F)(F)F)cc3)C2)cc(OC)c1OC (centres undefined)	117 nM		
COc1cc(C(=O)N2CCC(CCN3CCC(C(=O)c4nc5ccccc5n4Cc4ccccn4)CC3)(c3ccc(Cl)c(Cl)c3)C2)cc(OC)c1OC (centres undefined)	32 nM		
CC(C)(C)c1ccc(C(O)CCCN2CCC(C(O)(c3ccccc3)c3ccccc3)CC2)cc1 (centres undefined) [TERFENADINE]	> 10000 nM		
COc1cc(C(=O)N2CCC(CCN3CCC(C(=O)c4nc5ccccc5n4Cc4ccc(C(=O)O)cc4)CC3)(c3ccccc3)C2)cc(OC)c1OC (centres undefined)	36 nM	3420 nM	
COc1ccc(CCN2CCC(C(=O)c3nc4ccccc4n3Cc3ccc(F)cc3)CC2)cc1			IC50 (Substance-P receptor [8]): 5200 nM; IC50 (Substance-K receptor): 3390 nM
COc1ccc(C2(CCN3CCC(C(=O)c4nc5ccccc5n4Cc4ccccn4)CC3)CCN(C(=O)c3cc(OC)c(OC)c(OC)c3)C2)cc1 (centres undefined)	42 nM		
COc1cc(C(=O)N2CC[C@](CCN3CCC(C(N)=O)(c4ccccc4)CC3)(c3ccc(Cl)c(Cl)c3)C2)cc(OC)c1OC			IC50 (Substance-P receptor [8]): 3 nM; IC50 (Histamine H1 receptor [9]): 10000 nM; IC50 (Substance-K receptor): 8 nM
